# From PubChem BioAssay AID1963841 (Molecular Pharmacology Branch, DTP, NCI, 2024)
# Tested on: 439559-082-T-J2-PDC spheroid viability
# Assay: Anticancer human tumor 439559-082-T-J2-PDC patient-derived colon adenocarcinoma cell line growth inhibition [POLQ]
# Conditions: spheroids with HUVEC and MSC; for IC50: curve of first compound; for viability, T/C: stronger effect = lower value
# Description: Multicellular complex tumor spheroid response to Polymerase (POL) inhibitors (novobiocin, ART-558, RP6685) in combination with a variety of drugs and investigational agents in selected tumor cell lines
# The POL inhibitors (novobiocin, ART-558, and RP6685) were evaluated both individually and in combination with standard of care and investigational anticancer small molecules within a complex spheroid model of solid tumors. . Complex spheroids include a stromal component modeled by human endothelial cells (HUVEC) and fibroblasts modeled by human mesenchymal stem cells (MSCs). The concentration ranges selected for each drug and investigational agent were based upon clinically achievable concentrations if the clinical Cmax of the agent was known.
# Compounds. The drugs and investigational agents: novobiocin (NSC847541), ART-558 (NSC835418), RP-6685 (NSC848927), peposertib (NSC802822), ceralasertib (NSC780249), elimusertib (NSC800525), camonsertib (NSC841442), AZD-1390 (NSC803789), olaparib (NSC753686), talazoparib (NSC767125), rucaparib (NSC756644), sotorasib (NSC818433), MRTX-1133 (NSC836407), SN-38 (NSC673596), topotecan (NSC609699), epotoside (NSC141540), doxorubicin (NSC123127), gemcitabine (NSC613327), 5-fluorouracil (NSC19893), paclitaxel (NSC125973), vemurafenib (NSC761431), MSA-2 (NSC828583), SN-011 (NSC837082), adavosertib (NSC754352), prexasertib (NSC758257), carboplatin (NSC241240) and oxaliplatin (NSC266046), were obtained from the National Cancer Institute (NCI) Developmental Therapeutics Program Chemical Repository (21). The FDA-approved anticancer drug set is available from the Developmental Therapeutics Program at https://dtp.cancer.gov/organization/dscb/obtaining/. […] The stock solutions were prepared in dimethyl sulfoxide (DMSO, Sigma-Aldrich, St. Louis, MO, cat. D2650), except for the platinum compounds which were prepared in saline (Quality Biological, Gaithersburg, MD, cat. 114-055-101), at 800-fold the tested concentration and stored at -70 degrees C prior to their use. All drugs and investigational agents were tested over a range starting from a high concentration at or near the clinical Cmax and decreasing in half-log increments. If the clinical Cmax for an agent had not been determined, the highest concentration tested was 10 microM, except for SN-38, which was tested at a high concentration of 1 microM.
# Cell Culture. All cells were maintained in an incubator at 37 degrees C and 5% CO2 with 95% humidity. The PDC lines were cultured according to standard operating procedures established by the NCI PDMR (https://pdmr.cancer.gov). Table 3 of the manuscript, lists the cell lines along with the number of the three cell types plated to form the mct-spheroids and media for tumor cell growth. After thawing, all PDC lines, except 997537-175-T-J1-PDC and 415267-285-R-J2-PDC, were cultured in Matrigel-coated flasks prepared with a working solution of 1X Ham's F-12 nutrient mix, without supplementation (Thermo Fisher Scientific, cat. 11765054), 100 U/mL penicillin-streptomycin (Thermo Fisher Scientific, cat. 15140122), and 2.5% Matrigel (Corning Inc., Corning, NY, cat. 354248) for the first three passages. The two PDC lines 997537-175-T-J1-PDC and 415267-285-R-J2-PDC were cultured on uncoated flasks. The 857933-349-R-J2-PDC line was cultured in 6C/Colon 1B media containing advanced DMEM/F-12 (Thermo Fisher Scientific, cat. 12634028), 10 mM HEPES (Thermo Fisher Scientific, cat. 15630080), 1X GlutaMAX supplement (Thermo Fisher Scientific, cat. 35050061), 0.1 mg/mL primocin (InvivoGen, San Diego, CA, cat. ant-pm-2), 10% defined fetal bovine serum, heat inactivated (HyClone Laboratories Inc., Logan, UT, cat. SH30070.03HI), 50% L-WRN conditioned media (ATCC, cat. CRL-3276), 1.25 mM N-Acetyl-L-cysteine (Sigma-Aldrich, cat. A9165), 10 mM nicotinamide (Sigma-Aldrich, cat. N0636), 1X B-27 supplement (Thermo Fisher Scientific, cat. 17504044), 1X N-2 supplement (Thermo Fisher Scientific, cat. […]
# 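Also: spheroids exposed to compounds for seven days before readout.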
# 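For viability, T/C in this document: 100% = DMSO vehicle control viability.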
smiles,measurement,setting,value
CC[C@@]1(O)C(=O)OCc2c1cc1n(c2=O)Cc2cc3c(CN(C)C)c(O)ccc3nc2-1 + COC1C(OC(N)=O)C(O)C(Oc2ccc3c(O)c(NC(=O)c4ccc(O)c(CC=C(C)C)c4)c(=O)oc3c2C)OC1(C)C,IC50,second compound 0.0316 µM,> 0.1 µM
same,IC50,second compound 0.1 µM,> 0.1 µM
same,IC50,second compound 0.316 µM,> 0.1 µM
same,IC50,second compound 1 µM,> 0.1 µM
same,IC50,second compound 3.16 µM,> 0.1 µM
same,IC50,second compound 10 µM,> 0.1 µM
same,"viability, T/C","second compound 0.0316 µM, first compound 0.000316 µM",99%
same,"viability, T/C","second compound 0.0316 µM, first compound 0.001 µM",100%
same,"viability, T/C","second compound 0.0316 µM, first compound 0.00316 µM",92.3%
same,"viability, T/C","second compound 0.0316 µM, first compound 0.01 µM",96.1%
same,"viability, T/C","second compound 0.0316 µM, first compound 0.0316 µM",89.5%
same,"viability, T/C","second compound 0.0316 µM, first compound 0.1 µM",74.2%
same,"viability, T/C","second compound 0.1 µM, first compound 0.000316 µM",99%
same,"viability, T/C","second compound 0.1 µM, first compound 0.001 µM",98.5%
same,"viability, T/C","second compound 0.1 µM, first compound 0.00316 µM",101%
same,"viability, T/C","second compound 0.1 µM, first compound 0.01 µM",101%
same,"viability, T/C","second compound 0.1 µM, first compound 0.0316 µM",87.7%
same,"viability, T/C","second compound 0.1 µM, first compound 0.1 µM",79.2%
same,"viability, T/C","second compound 0.316 µM, first compound 0.000316 µM",97.3%
same,"viability, T/C","second compound 0.316 µM, first compound 0.001 µM",99.5%
same,"viability, T/C","second compound 0.316 µM, first compound 0.00316 µM",105%
same,"viability, T/C","second compound 0.316 µM, first compound 0.01 µM",93.7%
same,"viability, T/C","second compound 0.316 µM, first compound 0.0316 µM",92.3%
same,"viability, T/C","second compound 0.316 µM, first compound 0.1 µM",79.1%
same,"viability, T/C","second compound 1 µM, first compound 0.000316 µM",105%
same,"viability, T/C","second compound 1 µM, first compound 0.001 µM",115%
same,"viability, T/C","second compound 1 µM, first compound 0.00316 µM",104%
same,"viability, T/C","second compound 1 µM, first compound 0.01 µM",97.5%
same,"viability, T/C","second compound 1 µM, first compound 0.0316 µM",94.2%
same,"viability, T/C","second compound 1 µM, first compound 0.1 µM",82.5%
same,"viability, T/C","second compound 3.16 µM, first compound 0.000316 µM",100%
same,"viability, T/C","second compound 3.16 µM, first compound 0.001 µM",99.8%
same,"viability, T/C","second compound 3.16 µM, first compound 0.00316 µM",105%
same,"viability, T/C","second compound 3.16 µM, first compound 0.01 µM",92.6%
same,"viability, T/C","second compound 3.16 µM, first compound 0.0316 µM",94.4%
same,"viability, T/C","second compound 3.16 µM, first compound 0.1 µM",74.7%
same,"viability, T/C","second compound 10 µM, first compound 0.000316 µM",105%
same,"viability, T/C","second compound 10 µM, first compound 0.001 µM",101%
same,"viability, T/C","second compound 10 µM, first compound 0.00316 µM",94.5%
same,"viability, T/C","second compound 10 µM, first compound 0.01 µM",100%
same,"viability, T/C","second compound 10 µM, first compound 0.0316 µM",91.3%
same,"viability, T/C","second compound 10 µM, first compound 0.1 µM",77.6%
